Experimental data: patent publication US6946452B2, “Use of N-acetyl-D-glucosamine in the manufacture of pharmaceutical useful for treating motion sickness” (Third Military Medical University Chinese People's …, priority 2001, dated 2005)

Key:
Proteus Mirabilis = assay: Promoting wave test (bacterial bio-wave growth model); assay type: cell-based; conditions: final concentration of 0.5% on LB plate, 37° C., compared with control
Source text: I. Promoting Wave Test of N-acetyl-D-glucosamine
1. Experimental Materials and Method:
1.1 Samples: Pure Compound of Formula (I)
1.2 Experimental Materials: • Strain: Proteus Mirabilis (which should comply with the following biological reaction characteristics: dynamics (+), urease (+), lactose (−), glucose (+), H2S (−), phenylalanine deaminase (+). • Culture medium: modified LB culture medium (the components of the composition are: trytones of 1%, yeast extract of 0.5%, sodium chloride 1%, glucose of 0.1%, TTC of 0.002% and pH=7.2˜7.4).
2. Experimental Results and Evaluation: • The experiment adopts a bio-wave model which is used to research the promoting wave function of N-acetyl-D-glucosamine. […] II. Toxicological Test of the Compound of Formula (I), including: […]

[1] = in vivo
Source text: 1. acute toxicity test: including tests of administrating medicine by oral, Intravenous injection and maximum limit amount for administration;
III. Observation of Curative Efficiency.

[2] = in vivo; remark: listed apart in the source
motion sickness = assay: Observation of curative efficiency in patients suffering from motion sickness; assay type: in vivo; conditions: for Not effective (number of persons) / Effective (number of persons): 20 persons; for Effective (number of persons): 100 km by car and by small steamboat
Method: 80 patients suffering from motion sickness were selected and randomly divided into four groups: a group to whom N-acetyl-D-glucosamine was administered in a long term (800 mg of NAG/person/day), a group to whom N-acetyl-D-glucosamine was administered in a short term (6000 mg of NAG/person/day), placebo group (6000 mg of glucose/person/day), a group to whom no medicament was administered. A double blind method was adopted, observing the curative efficiency for traveling 100 kilometers by car (its velocity was 20 kilometers/hour) and traveling 100 kilometers by a small steamboat. Compared with the situation before traveling by car, the following symptoms being relieved or removed will be judged to be effective: dizziness, nausea and vomiting.

[3] = long term group, 800 mg of NAG/person/day
[4] = short term group, 6000 mg of NAG/person/day

SMILES: CC(=O)N[C@H]1C(O)O[C@H](CO)[C@@H](O)[C@@H]1O (stereo partly drawn) [N-acetyl-D-glucosamine]
- promoting wave function (concentric ring pattern on LB plate) (Proteus Mirabilis): many fine waves on each ring emerged
- dosage at which acute toxicosis reaction had not appeared [1]: more than 2 g/kg
- maximum dosage with no toxicosis reaction [2]: 1 g/kg
- Not effective (number of persons) (motion sickness; [3]): 2
- Effective (number of persons) (motion sickness; [3]): 18
- effectivity of preventing and treating motion sickness (motion sickness; p<0.05 vs placebo group and no-administration group): more than 90%
- Not effective (number of persons) (motion sickness; [4]): 1
- Effective (number of persons) (motion sickness; [4]): 19
